In US9006433B2, “Substituted pyrimidines” (Merck Sharp & Dohme Corp., priority 2010, dated 2015) one finds IC50 data, which are given here for 39 compounds.

pIC50: −log10 of the molar value.

T1 sequence (Q9GZT9 whole entry, species assumed): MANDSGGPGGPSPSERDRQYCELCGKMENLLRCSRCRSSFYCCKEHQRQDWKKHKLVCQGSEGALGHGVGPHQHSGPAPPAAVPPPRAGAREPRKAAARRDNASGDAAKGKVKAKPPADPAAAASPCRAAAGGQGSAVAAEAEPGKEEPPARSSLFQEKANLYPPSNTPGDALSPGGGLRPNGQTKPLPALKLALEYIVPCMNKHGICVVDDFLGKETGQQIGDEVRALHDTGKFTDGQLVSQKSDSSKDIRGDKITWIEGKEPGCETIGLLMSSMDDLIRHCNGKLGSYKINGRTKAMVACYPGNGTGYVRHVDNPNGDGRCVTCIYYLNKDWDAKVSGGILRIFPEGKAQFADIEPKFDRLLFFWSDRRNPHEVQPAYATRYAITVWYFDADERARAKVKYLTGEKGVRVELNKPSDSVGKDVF

The experiment concerns the target T1, PHD2 (Homo sapiens, UniProt Q9GZT9).
T1 construct: FLAG-tagged full length PHD2 expressed in and purified from baculovirus-infected Sf9 cells; FLAG; made in house; host or cells: baculovirus-infected Sf9 cells
The experiment in a line: PHD2 inhibition assay (time resolved fluorescence, HIF-1α peptide hydroxylation / VHL complex detection). The experiment is classed as biochemical. The following applies: FLAG-tagged full length PHD2; 0.2 μM 2-oxoglutarate, 0.5 μM HIF-1α peptide. As for the experimental part:
To each well of a 96-well plate was added 1 μL of test compound in DMSO and 20 μl of assay buffer (50 mM Iris pH 7.4/0.01% Tween-20/0.1 mg/ml bovine serum albumin/10 μM ferrous sulfate/1 mM sodium ascorbate/20 μg/ml catalase) containing 0.15 μg/ml FLAG-tagged full length PHD2 expressed in and purified from baculovirus-infected Sf9 cells. After a 30 min preincubation at room temperature, the enzymatic reactions were initiated by the addition of […] of substrates (final concentrations of 0.2 μM 2-oxoglutarate and 0.5 μM HIF-1α peptide biotinyl-DLDLEMLAPYIPMDDDFQL (SEQ ID NO:1)). After 2 hr at room temperature, the reactions were terminated and signals were developed by the addition of a 25 μL quench/detection mix to a final concentration of 1 mM ortho-phenanthroline, 0.1 mM EDTA, 0.5 nM anti-(His)6 LANCE reagent (Perkin-Elmer Life Sciences), 100 nM AF647-labeled streptavidin (Invitrogen), and 2 μg/ml (His)-6-VHL complex (S. Tan(2001) Protein Expr. Purif. 21, 224-234). The ratio of time resolved fluorescence signals at 665 and 620 nm was determined, and percent inhibition was calculated relative to an uninhibited control sample run in parallel.
`O=C(Nc1cnc(-n2cccn2)nc1O)C(c1ccccc1)c1ccccc1` [Compound 2-1, N-(4-hydroxy-2-(1H-pyrazol-1-yl)pyrimidin-5-yl)-2,2-diphenylacetamide]: the pIC50 – broadly, the IC50 on a negative log10 scale, so that one unit is a factor of ten – is 7.70 to 9.30. Then `O=C(Nc1cnc(-n2cccn2)nc1O)c1ccccc1Cl` [Compound 3-1, 2-chloro-N-(4-hydroxy-2-(1H-pyrazol-1-yl)pyrimidin-5-yl)benzamide], with 7.70 to 9.30; and `O=C(Nc1cnc(-n2cccn2)nc1O)c1cccc(Cl)c1` [Compound 3-2, 3-chloro-N-(4-hydroxy-2-(1H-pyrazol-1-yl)pyrimidin-5-yl)benzamide], with 7.70 to 9.30; and `O=C(Nc1cnc(-n2cccn2)nc1O)c1ccc(Cl)cc1` [Compound 3-3, 4-chloro-N-(4-hydroxy-2-(1H-pyrazol-1-yl)pyrimidin-5-yl)benzamide], with 7.00 to 7.70. The value for `O=C(Nc1cnc(-n2cccn2)nc1O)c1cccc(C(F)(F)F)c1` [Compound 3-4, 3-(trifluoromethyl)-N-(4-hydroxy-2-(1H-pyrazol-1-yl)pyrimidin-5-yl)benzamide] was 7.70 to 9.30; that for `O=C(Nc1cnc(-n2cccn2)nc1O)c1ccc(C(F)(F)F)cc1` [Compound 3-5, 4-(trifluoromethyl)-N-(4-hydroxy-2-(1H-pyrazol-1-yl)pyrimidin-5-yl)benzamide] was 7.00 to 7.70; that for `O=C(Cc1ccc2ccccc2c1)Nc1cnc(-n2cccn2)nc1O` [Compound 3-6, N-(4-hydroxy-2-(1H-pyrazol-1-yl)pyrimidin-5-yl)-2-(naphthalen-3-yl)acetamide] was 7.70 to 9.30. The value for `N#Cc1ccccc1C(=O)Nc1cnc(-n2cccn2)nc1O` [Compound 3-7, 2-cyano-N-(4-hydroxy-2-(1H-pyrazol-1-yl)pyrimidin-5-yl)benzamide] was 5.00 to 7.00. Turning to `N#Cc1cccc(C(=O)Nc2cnc(-n3cccn3)nc2O)c1` [Compound 3-8, 3-cyano-N-(4-hydroxy-2-(1H-pyrazol-1-yl)pyrimidin-5-yl)benzamide], the pIC50 is 7.00 to 7.70. Compound `N#Cc1ccc(C(=O)Nc2cnc(-n3cccn3)nc2O)cc1` [Compound 3-9, 4-cyano-N-(4-hydroxy-2-(1H-pyrazol-1-yl)pyrimidin-5-yl)benzamide] showed a pIC50 of 7.00 to 7.70. Compound `O=C(Nc1cnc(-n2cccn2)nc1O)c1ccccc1C(F)(F)F` [Compound 3-10, 2-(trifluoromethyl)-N-(4-hydroxy-2-(1H-pyrazol-1-yl)pyrimidin-5-yl)benzamide] gave a pIC50 of 7.70 to 9.30. Turning to `COc1ccccc1C(=O)Nc1cnc(-n2cccn2)nc1O` [Compound 3-11, N-(4-hydroxy-2-(1H-pyrazol-1-yl)pyrimidin-5-yl)-2-methoxybenzamide], the pIC50 is 7.00 to 7.70. `COc1cccc(C(=O)Nc2cnc(-n3cccn3)nc2O)c1` [Compound 3-12, N-(4-hydroxy-2-(1H-pyrazol-1-yl)pyrimidin-5-yl)-3-methoxybenzamide] showed a pIC50 of 7.00 to 7.70. For the compound `COc1ccc(C(=O)Nc2cnc(-n3cccn3)nc2O)cc1` [Compound 3-13, N-(4-hydroxy-2-(1H-pyrazol-1-yl)pyrimidin-5-yl)-4-methoxybenzamide], the pIC50 is 7.00 to 7.70. `CS(=O)(=O)c1ccccc1C(=O)Nc1cnc(-n2cccn2)nc1O` [Compound 3-14, N-(4-hydroxy-2-(1H-pyrazol-1-yl)pyrimidin-5-yl)-2-(methylsulfonyl)benzamide] showed a pIC50 of 5.00 to 7.00. The value for `CS(=O)(=O)c1cccc(C(=O)Nc2cnc(-n3cccn3)nc2O)c1` [Compound 3-15, N-(4-hydroxy-2-(1H-pyrazol-1-yl)pyrimidin-5-yl)-3-(methylsulfonyl)benzamide] was 7.00 to 7.70.

Take `CS(=O)(=O)c1ccc(C(=O)Nc2cnc(-n3cccn3)nc2O)cc1` [Compound 3-16, N-(4-hydroxy-2-(1H-pyrazol-1-yl)pyrimidin-5-yl)-4-(methylsulfonyl)benzamide]: the pIC50 is 7.00 to 7.70. On to `O=C(Nc1cnc(-n2cccn2)nc1O)c1ccccc1-c1ccccc1` [Compound 3-17, N-[4-hydroxy-2-(1H-pyrazol-1-yl)pyrimidin-5-yl]biphenyl-2-carboxamide], for which the pIC50 was 7.00 to 7.70. Then `O=C(Nc1cnc(-n2cccn2)nc1O)c1cccc(-c2ccccc2)c1` [Compound 3-18, N-[4-hydroxy-2-(1H-pyrazol-1-yl)pyrimidin-5-yl]biphenyl-3-carboxamide], with 7.00 to 7.70; and `O=C(Nc1cnc(-n2cccn2)nc1O)c1ccc(-c2ccccc2)cc1` [Compound 3-19, N-[4-hydroxy-2-(1H-pyrazol-1-yl)pyrimidin-5-yl]biphenyl-4-carboxamide], with 7.70 to 9.30; and `O=C(Nc1cnc(-n2cccn2)nc1O)c1ccccc1Oc1ccccc1` [Compound 3-20, N-(4-hydroxy-2-(1H-pyrazol-1-yl)pyrimidin-5-yl)-2-phenoxybenzamide], with 7.00 to 7.70. The value for `O=C(Nc1cnc(-n2cccn2)nc1O)c1cccc(Oc2ccccc2)c1` [Compound 3-21, N-(4-hydroxy-2-(1H-pyrazol-1-yl)pyrimidin-5-yl)-3-phenoxybenzamide] was 7.70 to 9.30; that for `O=C(Nc1cnc(-n2cccn2)nc1O)c1ccc(Oc2ccccc2)cc1` [Compound 3-22, N-(4-hydroxy-2-(1H-pyrazol-1-yl)pyrimidin-5-yl)-4-phenoxybenzamide] was 7.70 to 9.30; that for `O=C(Cc1ccccc1Cl)Nc1cnc(-n2cccn2)nc1O` [Compound 3-23, 2-(2-chlorophenyl)-N-(4-hydroxy-2-(1H-pyrazol-1-yl)pyrimidin-5-yl)acetamide] was 7.70 to 9.30.

With `O=C(Cc1cccc(Cl)c1)Nc1cnc(-n2cccn2)nc1O` [Compound 3-24, 2-(3-chlorophenyl)-N-(4-hydroxy-2-(1H-pyrazol-1-yl)pyrimidin-5-yl)acetamide], the pIC50 was 7.70 to 9.30. The compound `O=C(Cc1ccc(Cl)cc1)Nc1cnc(-n2cccn2)nc1O` [Compound 3-25, 2-(4-chlorophenyl)-N-(4-hydroxy-2-(1H-pyrazol-1-yl)pyrimidin-5-yl)acetamide] gave a pIC50 of 7.70 to 9.30. The value for `N#Cc1cccc(CC(=O)Nc2cnc(-n3cccn3)nc2O)c1` [Compound 3-26, 2-(3-cyanophenyl)-N-(4-hydroxy-2-(1H-pyrazol-1-yl)pyrimidin-5-yl)acetamide] was 7.70 to 9.30. For `O=C(Cc1ccccc1C(F)(F)F)Nc1cnc(-n2cccn2)nc1O` [Compound 3-27, 2-(2-(trifluoromethyl)phenyl)-N-(4-hydroxy-2-(1H-pyrazol-1-yl)pyrimidin-5-yl)acetamide], the negative-log IC50 (pIC50) was 7.70 to 9.30. The value for `O=C(Cc1cccc(C(F)(F)F)c1)Nc1cnc(-n2cccn2)nc1O` [Compound 3-28, 2-(3-(trifluoromethyl)phenyl)-N-(4-hydroxy-2-(1H-pyrazol-1-yl)pyrimidin-5-yl)acetamide] was 7.70 to 9.30. Then `O=C(Cc1ccc(C(F)(F)F)cc1)Nc1cnc(-n2cccn2)nc1O` [Compound 3-29, 2-(4-(trifluoromethyl)phenyl)-N-(4-hydroxy-2-(1H-pyrazol-1-yl)pyrimidin-5-yl)acetamide], with 7.70 to 9.30; and `COc1ccccc1CC(=O)Nc1cnc(-n2cccn2)nc1O` [Compound 3-30, N-(4-hydroxy-2-(1H-pyrazol-1-yl)pyrimidin-5-yl)-2-(2-methoxyphenyl)acetamide], with 7.70 to 9.30; and `COc1cccc(CC(=O)Nc2cnc(-n3cccn3)nc2O)c1` [Compound 3-31, N-(4-hydroxy-2-(1H-pyrazol-1-yl)pyrimidin-5-yl)-2-(3-methoxyphenyl)acetamide], with 7.70 to 9.30. Regarding `COc1ccc(CC(=O)Nc2cnc(-n3cccn3)nc2O)cc1` [Compound 3-32, N-(4-hydroxy-2-(1H-pyrazol-1-yl)pyrimidin-5-yl)-2-(4-methoxyphenyl)acetamide], the pIC50 is 7.70 to 9.30. As to `CC(C(=O)Nc1cnc(-n2cccn2)nc1O)c1ccccc1` (stereo not drawn) [Compound 3-33, N-(4-hydroxy-2-(1H-pyrazol-1-yl)pyrimidin-5-yl)-2-phenylpropanamide], the pIC50 was 7.70 to 9.30. Then `CCC(C(=O)Nc1cnc(-n2cccn2)nc1O)c1ccccc1` (stereo not drawn) [Compound 3-34, N-(4-hydroxy-2-(1H-pyrazol-1-yl)pyrimidin-5-yl)-2-phenylbutanamide], with 7.70 to 9.30; and `CC(C)C(C(=O)Nc1cnc(-n2cccn2)nc1O)c1ccccc1` (stereo not drawn) [Compound 3-35, N-(4-hydroxy-2-(1H-pyrazol-1-yl)pyrimidin-5-yl)-3-methyl-2-phenylbutanamide], with 7.00 to 7.70.

In the case of `CCC(C)C(C(=O)Nc1cnc(-n2cccn2)nc1O)c1ccccc1` (stereo not drawn) [Compound 3-36, N-(4-hydroxy-2-(1H-pyrazol-1-yl)pyrimidin-5-yl)-3-methyl-2-phenylpentanamide], the pIC50 is 7.70 to 9.30. Then `CC(C)(C(=O)Nc1cnc(-n2cccn2)nc1O)c1ccccc1` [Compound 3-37, N-(4-hydroxy-2-(1H-pyrazol-1-yl)pyrimidin-5-yl)-2-methyl-2-phenylpropanamide], with 7.70 to 9.30; and `O=C(Nc1cnc(-n2cccn2)nc1O)C1(c2ccccc2)CC1` [Compound 3-38, N-(4-hydroxy-2-(1H-pyrazol-1-yl)pyrimidin-5-yl)-1-phenylcyclopropanecarboxamide], with 7.00 to 7.70.
